Where a name gives a salt, the structure may show the parent alone.
B1: human recombinant decorin: Human recombinant Decorin prepared from CHO-S cells, MW approximately 40,000 daltons; stabilization molecule (small leucine-rich proteoglycan) (protein, UniProt P07585 31-359, looked up)
Decorin: DEASGIGPEVPDDRDFEPSLGPVCPFRCQCHLRVVQCSDLGLDKVPKDLPPDTTLLDLQNNKITEIKDGDFKNLKNLHALILVNNKISKVSPGAFTPLVKLERLYLSKNQLKELPEKMPKTLQELRAHENEITKVRKVTFNGLNQMIVIELGTNPLKSSGIENGAFQGMKKLSYIRIADTNITSIPQGLPPSLTELHLDGNKISRVDAASLKGLNNLAKLGLSFNSISAVDNGSLANTPHLRELHLDNNKLTRVPGGLAEHKYIQVVYLHNNNISVVGSSDFCPPGHNTKKASYSGVSLFSNPVQYWEIQPSTFRCVYVRSAIQLGNYK

Legend:
feline cornea [1] = experiment: Corneal Hysteresis, Feline Study #1 (Reichert Ocular Response Analyzer); type: in vivo, cat; set-up: Corneal Hysteresis (CH): unit not given here
Procedure: Cats were placed in three treatment groups. One eye from two cats were untreated controls. All treatment solutions were administered using an applicator to localize exposure to the central corneal surface. The applicator used to apply solutions to the corneal surface was similar in design to that described in the co-pending provisional application entitled “APPARATUS TO IMPROVE LOCALIZED CONCENTRATION OF FLUIDS IN OCULAR ENVIRONMENTS” to Bruce DeWoolfson and Michael Luttrell, provisional application No. 61/064,731, filed Mar. 24, 2008, incorporated herein by reference in its entirety. Two eyes was treated with Proparacaine HCl, followed by treatment with 0.5M sodium phosphate buffer (pH 8.35), then with 3 mg of glutaric anhydride dissolved in 0.6 mL of sodium phosphate buffer, then with sodium phosphate buffer, followed by 1.5 μL of acetic anhydride diluted in 0.6 mL of sodium phosphate buffer, a second treatment with 1.5 μL of acetic anhydride in 0.6 mL of sodium phosphate buffer, a buffer rinse and finally treatment with 0.6 mL of human recombinant decorin (4.47 mg/mL).
Two eyes were treated as above but without a final treatment with decorin solution. All eyes were clinically evaluated immediately post-treatment. Three days following treatment, eyes were enucleated and the corneas removed, placed in formalin containing Cupromeronic blue.
Measurements of Corneal Hysteresis (CH) in the animals treated in Example 2. Corneal Hysteresis is a measure of the biomechanical strength of the cornea and is measured using the Reichert Ocular Response Analyzer. The Reichert Ocular Response Analyzer utilizes a dynamic bi-directional applanation process to measure the biomechanical properties of the cornea and the Intraocular Pressure of the eye. The basic output of the measurement process is a Goldmann-correlated pressure measurement (IOPG), and a new measure of corneal tissue properties called Corneal Hysteresis (CH).

feline cornea [2] = experiment: Corneal Hysteresis, Feline Study #2 (Reichert Ocular Response Analyzer); type: in vivo, cat; set-up: Corneal Hysteresis (CH): unit not given here
Procedure: A second study was conducted to examine the effects of acylation on “softening” or destabilizing corneal structural integrity using the Reichert Ocular Response Analyzer. Five subject animals were included in this study. One eye of each animal was treated with the contralateral eye serving as the control. For three animal subjects treatment eyes were evaluated for corneal hysteresis using the Reichert Ocular Response Analyzer before treatment and then after treatment with Proparacaine HCL, acetic anhydride diluted in sodium phosphate solution at a pH of 8.3-8.5, and decorin. For two animal subjects, no acylation agent was applied to the cornea. Instead, a 4 mm trephine was used to penetrate the corneal epithelium to provide a track for decorin penetration. Corneal hysteresis results are shown below in Table 2.

[3] = system: epithelial cell junctures of human donor corneal tissue; experiment: Confocal microscopy of fluorescent-tagged decorin penetration into donor cornea; type: in vitro ADME; details: for disruption of epithelial cell junctures permitting diffusion of human recombinant decorin: human donor cornea, agent applied 30 seconds to central cornea by applicator before fluorescent-tagged decorin
Excerpt: Confocal Microscopy of glutaric anhydride treated cornea. Four donor corneas were obtained from Insight Biomed (Minneapolis, Minn.). All cornea tested negative for viral contamination. Corneas were rejected for transplantation due to storage expiration, low endothelial cell counts or other factors not related to epithelial cell integrity and stromal structure. All corneas were examined by slit-lamp microscopy for epithelial cell integrity. Corneas were stored in Optisol (Bausch & Lomb) for storage. Confocal microscopy was conducted at the Department of Surgical Research, Dartmouth-Hitchcock Medical Center, Lebanon, N.H. Two corneas were untreated controls and two were treated with glutaric anhydride followed by application of fluorescent-tagged human recombinant decorin. […] Fluorescent-tagged decorin was prepared by reacting decorin with Oregon Green 488 using a labeling kit from Molecular Probes.
All corneas were placed on a convex silicone pad and secured with pins. This allowed exposure to the corneal surface in a fixed position. All treatment solutions were administered using an applicator to localize exposure to the central corneal surface. Control cornea were treated with Proparacaine HCl for 1 minute followed by treatment with 0.5 mL of 0.2M sodium phosphate buffer (pH 8.3-8.5) for 30 seconds, 0.5 mL of saline rinse for 30 seconds, and then 0.1 mL of fluorescent-tagged human recombinant decorin. T reated cornea were treated with Proparacaine HCl for 1 minute, followed by treatment with 0.5 mL of 0.2M sodium phosphate buffer (pH 8.3-8.5) for 30 seconds, glutaric anhydride (dissolved immediately before application in sodium phosphate buffer (pH 8.3-8.5) at 5 mg/mL) for 30 seconds, saline rinsed, and then treated with 0.1 mL of fluorescent-tagged human recombinant decorin. Control and treated corneas were examined for decorin diffusion into the stroma using the Zeis confocal microscope (Model LSM 510 Meta; C apo 40×, NA=1.2, Thornwood, N.Y.).
Confocal Microscopy of acetic anhydride treated cornea. The protocol was the same as that described above for glutaric anhydride treatment. All treatment solutions were administered using an applicator to localize exposure to the central corneal surface. The applicator used to apply solutions to the corneal surface was similar in design to that described in the co-pending provisional application entitled “APPARATUS TO IMPROVE LOCALIZED CONCENTRATION OF FLUIDS IN OCULAR ENVIRONMENTS” to Bruce DeWoolfson and Michael Luttrell, provisional application No. 61/064,731, filed Mar. 24, 2008, incorporated herein by reference in its entirety. Control cornea were treated with Proparacaine HCl for 1 minute followed by treatment with 0.5 mL of 0.2M sodium phosphate buffer (pH 8.3-8.5) for 30 seconds, 0.5 mL of saline rinse for 30 seconds, and then 0.1 mL of fluorescent-tagged human recombinant decorin. Treated cornea were treated with Proparacaine HCl for 1 minute, followed by treatment with 0.5 mL of 0.3M sodium phosphate buffer (pH 8.3-8.5) for 30 seconds, acetic anhydride (3 μL) (diluted with 0.3M sodium phosphate buffer (pH 8.3-8.5) immediately before application) for 30 seconds, saline rinsed, and then treatment with 0.1 mL of fluorescent-tagged human recombinant decorin. Control and treated corneas were examined for decorin diffusion into the stroma using the Zeis confocal microscope (Model LSM 510 Meta; C apo 40×, NA=1.2, Thornwood, N.Y.).

corneal epithelium = details: cited from earlier work
stromal collagen fibers = experiment: Transmission electron microscopy of decorin-treated cat cornea (first study); type: in vivo; details: cat eyes exposed to 50 μg decorin for 1, 3 or 5 days, no applicator; versus control cornea
Procedure: The following study was conducted at the Department of Surgical Research, Dartmouth-Hitchcock Medical Center, Lebanon, N.H. Five adult female cats were included in the study. All animals procured from Liberty Laboratories and were identified by ear tattoo. Ocular toxicity was determined by slit-lamp examination and measurement of endothelial cell structure. Decorin penetration into the corneal stroma was determined utilizing transmission electron microscopy. Cornea treated with decorin were reacted with Quinolinic Blue Stain (Cupromeronic blue) in buffered formalin. This reagent stains small proteoglycan structures such as decorin.
Cats were placed in three treatment groups. One eye from each group was treated with decorin. Three eyes were controls. Treated eyes were exposed to 50 μg of decorin for 1 day, 3 days or 5 days. Decorin solution was administered to the corneal using a sterile transfer pipet. An applicator was not used to localize the solution to the central corneal surface. All eyes were clinically evaluated immediately post-treatment and at days 2, 3, 5, and 8. One month after final treatment, eyes were reexamined and then enucleated. Each eye was sectioned. One half was placed in Formalin for subsequent histological analysis. The other half was again divided in half, one half prepared for Transmission Electron Microscopy. […]

[4] = Animal IBT4 treated eye, after the named step of the sequence Proparacaine, GA, AA #1, AA #2, decorin, Initial 4.0
[5] = Animal QKU8 treated eye, no decorin, after the named step of the sequence, Initial 7.0
[6] = Animal QKU8 treated eye, after the named step of the sequence, Initial 6.4
[7] = Animal QNO6 treated eye, no decorin, after the named step of the sequence, Initial 6.3
[8] = Animal AHH3, after the named step of Proparacaine HCL, acetic anhydride, decorin, Initial 8.75
[9] = Animal QJD4, after the named step of Proparacaine HCL, acetic anhydride, decorin, Initial 6.9
[10] = Animal RAF6, after the named step of Proparacaine HCL, acetic anhydride, decorin, Initial 5.88

Molecule | Corneal Hysteresis (CH) (feline cornea [1]; [4]) | Corneal Hysteresis (CH) (feline cornea [1]; [5]) | Corneal Hysteresis (CH) (feline cornea [1]; [6]) | Corneal Hysteresis (CH) (feline cornea [1]; [7]) | Corneal Hysteresis (CH) (feline cornea [2]; [8]) | Corneal Hysteresis (CH) (feline cornea [2]; [9]) | Corneal Hysteresis (CH) (feline cornea [2]; [10]) | disruption of epithelial cell junctures permitting diffusion of human recombinant decorin [3] | other results
CCCOc1ccc(C(=O)OCCN(CC)CC)cc1N [Proparacaine, Proparacaine HCl, reference compound] | 7.0 | 7.5 | 8.0 | 7.0 | – | – | – | – | –
CC(=O)OC(C)=O [acetic anhydride] | 3.2 | 5.7 | 7.0 | 5.7 | 5.73 | 3.9 | 4.15 | successfully disrupted the epithelial cell junctures | Corneal Hysteresis (CH) (feline cornea [1]; Animal IBT4 treated eye, Post-AA #2 (second acetic anhydride treatment), Initial 4.0): 3.9; Corneal Hysteresis (CH) (feline cornea [1]; Animal QKU8 treated eye, Post-AA #2, Initial 6.4): 6.7; Corneal Hysteresis (CH) (feline cornea [1]; Animal QKU8 treated eye, Post-AA #2, Initial 7.0): 4.8; Corneal Hysteresis (CH) (feline cornea [1]; Animal QNO6 treated eye, Post-AA #2, Initial 6.3): 3.8
C[C@@H]1CC[C@@]2(OC1)O[C@H]1[C@@H](O)[C@H]3[C@@H]4CC[C@H]5C[C@@H](O[C@@H]6O[C@H](CO)[C@H](O[C@@H]7O[C@H](CO)[C@@H](O)[C@H](O[C@@H]8OC[C@@H](O)[C@H](O)[C@H]8O)[C@H]7O[C@@H]7O[C@H](CO)[C@H](O)[C@H](O[C@@H]8O[C@H](CO)[C@@H](O)[C@H](O)[C@H]8O)[C@H]7O)[C@H](O)[C@H]6O)[C@H](O)C[C@]5(C)[C@H]4CC[C@]3(C)[C@H]1[C@@H]2C [digitonin] | – | – | – | – | – | – | – | – | effect of pretreating cornea on drug penetration (corneal epithelium; Shih and Lee): enhance penetration of timolol; effect of pretreating cornea on epithelium layers (corneal epithelium; Shih and Lee): exfoliate the top 2 layers of epithelium
O=C1CCCC(=O)O1 [glutaric anhydride] | 3.3 | 6.4 | 5.3 | 6.4 | – | – | – | successfully disrupted the epithelial cell junctures | –
cetylpyridium chloride | – | – | – | – | – | – | – | – | effect on corneal epithelium (corneal epithelium; 0.02%, Godbey): disrupted the top layers of epithelial cells
B1 | 4.6 | – | 7.9 | – | 7.3 | 6.3 | 5.18 | – | molecular bridges (links between fibers) between collagen fibers, TEM (stromal collagen fibers): increase in molecular bridges; change of corneal hysteresis (CH), in words (feline cornea [1]; Feline Study #1, sequential acylation then decorin): increased CH values to levels greater than initial values; Corneal Hysteresis (CH) (feline cornea [2]; Animal BEA4, no acylation agent, 4 mm trephine through epithelium, Initial 3.65): 4.8; Corneal Hysteresis (CH) (feline cornea [2]; Animal IRH6, no acylation agent, 4 mm trephine through epithelium, Initial 7.98): 8.03; change of CH values, in words (feline cornea [2]; Feline Study #2, acylation agent treated cornea): increased CH values; change of CH values, in words (feline cornea [2]; Feline Study #2, trephined but not acylation agent treated cornea): minimal increase in CH values; decorin penetration into cornea ([3]; control cornea, epithelial cell junctures not disrupted, applied directly to central cornea): limited to the epithelium; decorin penetration into cornea ([3]; cornea pretreated with acetic anhydride (3 μL) for 30 seconds): penetrated the corneal stroma; decorin penetration into cornea ([3]; cornea pretreated with glutaric anhydride 5 mg/mL for 30 seconds): penetrated the corneal stroma

— patent US20110086802A1, “METHODS TO INCREASE PERMEABILITY OF CORNEAL EPITHELIUM AND DESTABILIZE STROMAL COLLAGEN FIBRIL NETWORK” (priority 2008, published 2011)
